Data: patent US10000488B2, “Heterocyclic compound” (TAKEDA PHARMACEUTICAL COMPANY LIMITED, priority 2014, dated 2018)

Assays:
RORγt [1] = target: T1, RORγt (Homo sapiens, UniProt P51449); assay: Cofactor recruitment test (Alpha Screen, biotinylated SRC-1 peptide); assay type: biochemical; settings: for inhibition at 1 µM: read-out: signal value inhibitory rate (%) at test compound 1 μM
T1 sequence (P51449 1-497 isoform P51449-2): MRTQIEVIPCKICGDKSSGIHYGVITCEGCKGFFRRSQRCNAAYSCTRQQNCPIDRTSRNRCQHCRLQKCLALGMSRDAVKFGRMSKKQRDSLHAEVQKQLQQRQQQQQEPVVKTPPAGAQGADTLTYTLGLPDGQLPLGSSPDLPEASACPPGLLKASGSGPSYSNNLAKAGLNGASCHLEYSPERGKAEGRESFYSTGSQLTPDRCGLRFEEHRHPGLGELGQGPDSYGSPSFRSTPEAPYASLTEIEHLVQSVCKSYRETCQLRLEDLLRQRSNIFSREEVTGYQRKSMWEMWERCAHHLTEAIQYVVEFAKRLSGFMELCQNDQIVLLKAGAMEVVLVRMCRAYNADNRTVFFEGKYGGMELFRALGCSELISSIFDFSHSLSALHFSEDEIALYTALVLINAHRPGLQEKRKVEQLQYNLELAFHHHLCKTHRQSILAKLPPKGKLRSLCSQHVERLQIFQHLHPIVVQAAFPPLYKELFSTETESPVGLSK
Protocol: Cofactor Recruitment Test
Cofactor recruitment test was performed by Alpha Screen (Histidine Detection Kit, PerkinElmer) method. First, a test compound was diluted with an assay buffer (50 mM Tris-HCl (pH 7.5), 50 mM KCl, 1 mM DTT, 0.1% BSA) and added to a 384 well plate by 5 μL. […] The mixture was stood in a dark place for 1 hr, and the signal value was measured by Envision (PerkinElmer).

RORγt [2] = target: T1, RORγt; assay: Jurkat reporter test (human IL-17 ROR response element luciferase reporter, RORγt vector); assay type: cell-based; settings: Jurkat cells; for inhibition at 3 µM: test compound 3 μM, read-out: luminescence level inhibitory rate (%) at test compound 3 μM
Protocol: The Jurkat cells used for the reporter test were cultured in a culture medium (RPMI (Invitrogen), 10% FCS (AusGeneX), 100 U/mL penicillin, 100 μg/mL streptomycin). On the day of the test, 4×10^7 cells were recovered by a centrifugal operation (1000 rpm, for 5 min) and suspended in PBS (phosphate buffered saline) (Invitrogen). Thereafter, the cells were recovered again by a centrifugal operation, and suspended in 2 mL of R buffer (NEON transfection kit, Invitrogen). […] Gene transfer was performed by Electroporation apparatus (NEON, Invitrogen) under the conditions of pulse voltage 1350 V, interval 10 milliseconds, number of times 3. The cells after gene transfer were suspended in 40 mL of a reaction medium (RPMI, 10% Lipid reduced FCS (HyClone), 10 mM HEPES (pH 7.5), 100 U/mL penicillin, 100 μg/mL streptomycin, 5 μM lovastatin), and plated in a 96 well plate by 90 μL. A test compound diluted with the reaction medium was added by 10 μL, and the cells were cultured overnight in an incubator. Bright-Glo (Promega) was added by 100 μL, and the mixture was stirred at room temperature for 10 min, and the luminescence level was measured by Envision (PerkinElmer).

RORγt [3] = target: T1, RORγt; assay: RORγt binding test using fluorescent-labeled synthetic ligand (TR-FRET); settings: for inhibition at 1 µM: test compound 1 μM, read-out: binding inhibitory rate (%) of fluorescent-labeled synthetic ligand to RORγt at test compound 1 μM
Protocol: RORγt Binding Test Using Fluorescent-Labeled Synthetic Ligand
The binding activity of the test compound to RORγt was measured by a time resolved fluorescence resonance energy transfer (TR-FRET) utilizing histidine-tagged RORγt, fluorescent-labeled synthetic ligand, and terbium-labeled anti-histidine tag antibody (Invitrogen). First, a test compound diluted with an assay buffer (20 mM Tris-HCl (pH 7.5), 100 mM NaCl, 1 mM DTT, 0.1% BSA) was added to a 384 well plate by 3 μL. Then, RORγt diluted with an assay buffer to 240 nM was added by 3 μL, after which fluorescent-labeled synthetic ligand diluted with the assay buffer to 12 μM was added by 3 μL, and the mixture was stood at room temperature for 20 min. Thereafter, a terbium-labeled anti-histidine tag antibody diluted with the assay buffer to 8 nM was added by 3 μL. The mixture was stood at room temperature for 20 min, and fluorescence intensity (excitation wavelength 320 nm, fluorescence wavelength 520 nm, delay time 100 microseconds) was measured by Envision (PerkinElmer).

Structure (SMILES) | inhibition at 1 µM (RORγt [1]) | inhibition at 3 µM (RORγt [2]) | inhibition at 1 µM (RORγt [3]) | signal value inhibitory rate (%) at test compound 1 μM (RORγt [1]; test compound 1 μM) | luminescence level inhibitory rate (%) at test compound 3 μM (RORγt [2]) | binding inhibitory rate (%) of fluorescent-labeled synthetic ligand to RORγt at test compound 1 μM (RORγt [3])
CC(C)n1c(=O)n(CC2CC2)c(=O)c2cc(NC(=O)N3CCO[C@@H](C(=O)Nc4cc(F)c(C#N)cc4F)C3)ccc21 [Example 168, (2R)-N^2-(4-cyano-2,5-difluorophenyl)-N^4-(3-(cyclopropylmethyl)-1-isopropyl-2,4-dioxo-1,2,3,4-tetrahydroquinazolin-6-yl)morpholine-2,4-dicarboxamide] | 108% | 102% | 102% |  |  | 
CC(C)n1c(=O)n(C[C@@H]2CCCO2)c(=O)c2cc(NC(=O)N3CCO[C@@H](C(=O)Nc4cc(Cl)c(C#N)cc4F)C3)c(F)cc21 [Example 358, (2R)—N^2-(5-chloro-4-cyano-2-fluorophenyl)-N^4-(7-fluoro-1-isopropyl-2,4-dioxo-3-((2S)-tetrahydrofuran-2-ylmethyl)-1,2,3,4-tetrahydroquinazolin-6-yl)morpholine-2,4-dicarboxamide] | 107% | 106% | 101% |  |  | 
CC(C)n1c(=O)n(CC2CC2)c(=O)c2cc(NC(=O)N3CCC[C@@H](NC(=O)c4ccc(Cl)cc4)C3)ccc21 [Example 247, (3R)-3-((4-chlorobenzoyl)amino)-N-(3-(cyclopropylmethyl)-1-isopropyl-2,4-dioxo-1,2,3,4-tetrahydroquinazolin-6-yl)piperidine-1-carboxamide] | 107% | 103% | 102% |  |  | 
CCNC(=O)OCc1ccc(C(=O)N[C@@H]2CCCN(C(=O)Nc3cc4c(=O)n(CC5CC5)c(=O)n(C(C)C)c4cc3F)C2)cc1 [Example 315, 4-(((3R)-1-((3-(cyclopropylmethyl)-7-fluoro-1-isopropyl-2,4-dioxo-1,2,3,4-tetrahydroquinazolin-6-yl)carbamoyl)piperidin-3-yl)carbamoyl)benzyl ethylcarbamate] | 94% | 108% | 102% |  |  | 
CC(C)n1c(=O)n(CC2CC2)c(=O)c2cc(NC(=O)N3CCO[C@@H](C(=O)Nc4cnc(C#N)c(Cl)c4)C3)c(F)cc21 [Example 266, (2R)-N^2-(5-chloro-6-cyanopyridin-3-yl)-N^4-(3-(cyclopropylmethyl)-7-fluoro-1-isopropyl-2,4-dioxo-1,2,3,4-tetrahydroquinazolin-6-yl)morpholine-2,4-dicarboxamide] | 108% | 103% | 102% |  |  | 
Cc1nc2cc(C(=O)N[C@@H]3CCCN(C(=O)Nc4cc5c(=O)n(CC6CC6)c(=O)n(C(C)C)c5cc4F)C3)ccc2o1 [Example 296, N-((3R)-1-((3-(cyclopropylmethyl)-7-fluoro-1-isopropyl-2,4-dioxo-1,2,3,4-tetrahydroquinazolin-6-yl)carbamoyl)piperidin-3-yl)-2-methyl-1,3-benzoxazole-5-carboxamide] | 108% | 102% | 102% |  |  | 
CC(C)n1c(=O)n(CC2CC2(F)F)c(=O)c2cc(NC(=O)N3CCOC(C(=O)Nc4cnc(C#N)c(Cl)c4)C3)c(F)cc21 (mixture of isomers) [Example 356, (2R)—N^2-(5-chloro-6-cyanopyridin-3-yl)-N^4-(3-((2,2-difluorocyclopropyl)methyl)-7-fluoro-1-isopropyl-2,4-dioxo-1,2,3,4-tetrahydroquinazolin-6-yl)morpholine-2,4-dicarboxamide (mixture of two stereoisomers)] | 108% | 107% | 102% |  |  | 
CC(C)n1c(=O)n(CC2CC2)c(=O)c2cc(NC(=O)N3CCCC(NC(=O)c4ccc(C#N)nc4)C3)ccc21 (stereo not drawn) [Example 157, 6-cyano-N-(1-((3-(cyclopropylmethyl)-1-isopropyl-2,4-dioxo-1,2,3,4-tetrahydroquinazolin-6-yl)carbamoyl)piperidin-3-yl) nicotinamide] | 109% | 102% | 102% |  |  | 
COC(=O)c1cccc(C(=O)NC2CCCN(C(=O)Nc3ccc4c(c3)c(=O)n(CC3CC3)c(=O)n4C(C)C)C2)c1 (stereo not drawn) [Example 113, methyl 3-((1-((3-(cyclopropylmethyl)-1-isopropyl-2,4-dioxo-1,2,3,4-tetrahydroquinazolin-6-yl)carbamoyl)piperidin-3-yl)carbamoyl)benzoate] | 109% | 102% | 102% |  |  | 
CC(C)n1c(=O)n(CC2CC2(F)F)c(=O)c2cc(NC(=O)N3CCOC(C(=O)Nc4ccc(C#N)c(Cl)c4)C3)c(F)cc21 (single isomer, unassigned) [Example 368, (2R)—N^2-(3-chloro-4-cyanophenyl)-N^4-(3-(((1R or 1S)-2,2-difluorocyclopropyl)methyl)-7-fluoro-1-isopropyl-2,4-dioxo-1,2,3,4-tetrahydroquinazolin-6-yl)morpholine-2,4-dicarboxamide (one stereoisomer, quinazolinedione: derived from tR2)] |  |  |  | 105% | 108% | 102%
CC(C)n1c(=O)n(CC2CC2)c(=O)c2cc(NC(=O)N3CCCC(NC(=O)c4ccc(C#N)c(Cl)c4)C3)ccc21 (stereo not drawn) [Example 88, 3-((3-chloro-4-cyanobenzoyl)amino)-N-(3-(cyclopropylmethyl)-1-isopropyl-2,4-dioxo-1,2,3,4-tetrahydroquinazolin-6-yl)piperidine-1-carboxamide] | 102% | 102% | 102% |  |  | 
CC(C)n1c(=O)n(CC2CCCO2)c(=O)c2cc(NC(=O)N3CCO[C@@H](C(=O)Nc4ccc(C#N)c(Cl)c4)C3)c(F)cc21 (stereo partly drawn) [Example 333, (2R)—N^2-(3-chloro-4-cyanophenyl)-N^4-(7-fluoro-1-isopropyl-2,4-dioxo-3-(tetrahydrofuran-2-ylmethyl)-1,2,3,4-tetrahydroquinazolin-6-yl)morpholine-2,4-dicarboxamide] | 107% | 106% | 101% |  |  | 
CC(C)n1c(=O)n(CC2CC2)c(=O)c2cc(NC(=O)N3CCC[C@@H](NC(=O)c4cc(F)ccc4F)C3)c(F)cc21 [Example 287, (3R)-N-(3-(cyclopropylmethyl)-7-fluoro-1-isopropyl-2,4-dioxo-1,2,3,4-tetrahydroquinazolin-6-yl)-3-((2,5-difluorobenzoyl)amino)piperidine-1-carboxamide] | 111% | 100% | 102% |  |  | 
Cc1cc(C(=O)N[C@@H]2CCCN(C(=O)Nc3ccc4c(c3)c(=O)n(CC3CC3)c(=O)n4C(C)C)C2)ccc1C#N [Example 249, (3R)-3-((4-cyano-3-methylbenzoyl)amino)-N-(3-(cyclopropylmethyl)-1-isopropyl-2,4-dioxo-1,2,3,4-tetrahydroquinazolin-6-yl)piperidine-1-carboxamide] | 110% | 103% | 102% |  |  | 
CC(C)n1c(=O)n(CC2CC2)c(=O)c2cc(NC(=O)N3CCC[C@@H](N4Cc5ccc(Cl)cc5C4=O)C3)c(F)cc21 [Example 336, (3R)-3-(6-chloro-1-oxo-1,3-dihydro-2H-isoindol-2-yl)-N-(3-(cyclopropylmethyl)-7-fluoro-1-isopropyl-2,4-dioxo-1,2,3,4-tetrahydroquinazolin-6-yl)piperidine-1-carboxamide] | 106% | 106% | 102% |  |  | 
